Laboratory results: patent publication US20240398893A1, “ANTI-CORONAVIRUS POLYPEPTIDE AS WELL AS DERIVATIVE AND APPLICATION THEREOF” (priority 2021, published 2024)

System: pseudovirus of SARS-COV-2 variant Omicron (BA.1)
Settings: pseudovirus of variant Omicron (BA.1)

Row | Compound | EC50 [nM]
1 | CC[C@H](C)[C@H](NC(=O)CNC(=O)[C@H](CO)NC(=O)[C@@H](NC(=O)[C@H](CC(=O)O)NC(=O)CNC(=O)[C@H](Cc1ccccc1)NC(=O)[C@H](CCCCN)NC(=O)[C@@H](N)C(C)C)[C@@H](C)CC)C(=O)N[C@@H](CC(N)=O)C(=O)N[C@@H](C)C(=O)N[C@@H](CO)C(=O)N[C@H](C(=O)N[C@H](C(=O)N[C@@H](CC(N)=O)C(=O)N[C@H](C(=O)N[C@@H](CCCCN)C(=O)N[C@@H](CCC(=O)O)C(=O)N[C@@H](CCC(=O)O)C(=O)N[C@H](C(=O)N[C@@H](CC(=O)O)C(=O)N[C@@H](CCCNC(=N)N)C(=O)N[C@@H](CC(C)C)C(=O)N[C@@H](Cc1ccc(O)cc1)C(=O)N[C@@H](CCC(=O)O)C(=O)N[C@H](C(=O)N[C@H](C(=O)N[C@@H](CCCCN)C(=O)N[C@@H](CC(N)=O)C(=O)N[C@@H](CC(C)C)C(=O)N[C@@H](CC(N)=O)C(=O)N[C@@H](CCC(=O)O)C(=O)N[C@@H](CO)C(=O)N[C@@H](CC(C)C)C(=O)N[C@H](C(=O)N[C@@H](CC(=O)O)C(=O)N[C@@H](CC(C)C)C(=O)N[C@@H](CCC(N)=O)C(=O)N[C@@H](CCC(=O)O)C(=O)N[C@@H](CC(C)C)C(=O)NCC(=O)N[C@@H](CO)C(=O)NCC(=O)N[C@@H](CO)C(=O)NCC(=O)N[C@@H](CSCC(=O)O[C@H]1CC[C@@]2(C)C(=CC[C@H]3[C@@H]4CC[C@H]([C@H](C)CCCC(C)C)[C@@]4(C)CC[C@@H]32)C1)C(N)=O)[C@@H](C)CC)C(C)C)C(C)C)[C@@H](C)CC)[C@@H](C)CC)C(C)C)C(C)C [P3-3-GS-Chol] | 1730
2 | CC[C@H](C)[C@H](NC(=O)CNC(=O)[C@H](CO)NC(=O)[C@@H](NC(=O)[C@H](CC(=O)O)NC(=O)CNC(=O)[C@H](Cc1ccccc1)NC(=O)[C@H](CCCCN)NC(=O)[C@@H](N)C(C)C)[C@@H](C)CC)C(=O)N[C@@H](CC(N)=O)C(=O)N[C@@H](C)C(=O)N[C@@H](CO)C(=O)N[C@H](C(=O)N[C@H](C(=O)N[C@@H](CC(N)=O)C(=O)N[C@H](C(=O)N[C@@H](CCCCN)C(=O)N[C@@H](CCC(=O)O)C(=O)N[C@@H](CCC(=O)O)C(=O)N[C@H](C(=O)N[C@@H](CC(=O)O)C(=O)N[C@@H](CCCNC(=N)N)C(=O)N[C@@H](CC(C)C)C(=O)N[C@@H](Cc1ccc(O)cc1)C(=O)N[C@@H](CCC(=O)O)C(=O)N[C@H](C(=O)N[C@H](C(=O)N[C@@H](CCCCN)C(=O)N[C@@H](CC(N)=O)C(=O)N[C@@H](CC(C)C)C(=O)N[C@@H](CC(N)=O)C(=O)N[C@@H](CCC(=O)O)C(=O)N[C@@H](CO)C(=O)N[C@@H](CC(C)C)C(=O)N[C@H](C(=O)N[C@@H](CC(=O)O)C(=O)N[C@@H](CC(C)C)C(=O)N[C@@H](CCC(N)=O)C(=O)N[C@@H](CCC(=O)O)C(=O)N[C@@H](CC(C)C)C(=O)N[C@@H](CSCC(=O)NCCOCCOCCOCCOCC(=O)O[C@H]1CC[C@@]2(C)C(=CC[C@H]3[C@@H]4CC[C@H]([C@H](C)CCCC(C)C)[C@@]4(C)CC[C@@H]32)C1)C(N)=O)[C@@H](C)CC)C(C)C)C(C)C)[C@@H](C)CC)[C@@H](C)CC)C(C)C)C(C)C [P3-3-PEG-Chol] | 571
3 | CC[C@H](C)[C@H](NC(=O)CNC(=O)[C@H](CO)NC(=O)[C@@H](NC(=O)[C@H](CC(=O)O)NC(=O)CNC(=O)[C@H](Cc1ccccc1)NC(=O)[C@H](CCCCN)NC(=O)[C@@H](N)C(C)C)[C@@H](C)CC)C(=O)N[C@@H](CC(N)=O)C(=O)N[C@@H](C)C(=O)N[C@@H](CO)C(=O)N[C@H](C(=O)N[C@H](C(=O)N[C@@H](CC(N)=O)C(=O)N[C@H](C(=O)N[C@@H](CCCCN)C(=O)N[C@@H](CCC(=O)O)C(=O)N[C@@H](CCC(=O)O)C(=O)N[C@H](C(=O)N[C@@H](CC(=O)O)C(=O)N[C@@H](CCCNC(=N)N)C(=O)N[C@@H](CC(C)C)C(=O)N[C@@H](Cc1ccc(O)cc1)C(=O)N[C@@H](CCC(=O)O)C(=O)N[C@H](C(=O)N[C@H](C(=O)N[C@@H](CCCCN)C(=O)N[C@@H](CC(N)=O)C(=O)N[C@@H](CC(C)C)C(=O)N[C@@H](CC(N)=O)C(=O)N[C@@H](CCC(=O)O)C(=O)N[C@@H](CO)C(=O)N[C@@H](CC(C)C)C(=O)N[C@H](C(=O)N[C@@H](CC(=O)O)C(=O)N[C@@H](CC(C)C)C(=O)N[C@@H](CCC(N)=O)C(=O)N[C@@H](CCC(=O)O)C(=O)N[C@@H](CC(C)C)C(=O)O)[C@@H](C)CC)C(C)C)C(C)C)[C@@H](C)CC)[C@@H](C)CC)C(C)C)C(C)C [P3-3] | 22700
